ChEMBL document CHEMBL1268962 (Bioorg Med Chem Lett, 2010)
pIC50: −log10 of the molar value.

Columns and labels:
Assay type in all cases: functional, cell-based
[1] = test system: L1210; experiment: Cytotoxicity against mouse L1210 cells after 72 hrs; settings: L1210, 72 h
[2] = test system: HCT-116; experiment: Cytotoxicity against vinblastine-resistant human HCT116 cells after 72 hrs; settings: HCT-116, 72 h
[3] = test system: HCT-116; experiment: Cytotoxicity against human HCT116 cells after 72 hrs; settings: HCT-116, 72 h

Row | Structure (SMILES) | pIC50 [1] | pIC50 [2] | pIC50 [3]
1 | CCC1=C[C@@H]2CN(CCc3c([nH]c4ccccc34)[C@@](C(=O)OC)(c3cc4c(cc3OC)N(C)C3[C@]45CCN4CC=C[C@@](CC)([C@@H](OC(C)=O)[C@]3(O)C(=O)OC)[C@H]45)C2)C1 (some centres undefined) | 7.19 | 6.22 | 7.12
2 | CCC1=C[C@@H]2CN(CCc3c([nH]c4ccccc34)[C@@](C=O)(c3cc4c(cc3OC)N(C)C3[C@]45CCN4CC=C[C@@](CC)([C@@H](OC(C)=O)[C@]3(O)C(=O)OC)[C@H]45)C2)C1 (some centres undefined) | 5.20 | < 5.00 | 5.15
3 | CC[C@]1(O)C[C@@H]2CN(CCc3c([nH]c4ccccc34)[C@@](C(=O)OC)(c3cc4c(cc3OC)N(C)[C@H]3[C@@](O)(C(=O)OC)[C@H](OC(C)=O)[C@]5(CC)C=CCN6CC[C@]43[C@@H]65)C2)C1 [VINBLASTINE] | 8.22 | 6.22 | 
4 | CCC1=C[C@@H]2CN(CCc3c([nH]c4ccccc34)[C@@](C(N)=O)(c3cc4c(cc3OC)N(C)C3[C@]45CCN4CC=C[C@@](CC)([C@@H](OC(C)=O)[C@]3(O)C(=O)OC)[C@H]45)C2)C1 (some centres undefined) | < 5.00 | < 5.00 | < 5.00
5 | CCC1=C[C@@H]2CN(CCc3c([nH]c4ccccc34)[C@@](C#N)(c3cc4c(cc3OC)N(C)C3[C@]45CCN4CC=C[C@@](CC)([C@@H](OC(C)=O)[C@]3(O)C(=O)OC)[C@H]45)C2)C1 (some centres undefined) | 5.19 | 5.17 | 5.21
6 | CC[C@]1(O)C[C@@H]2CN(CCc3c([nH]c4ccccc34)[C@@](CCO)(c3cc4c(cc3OC)N(C)C3[C@]45CCN4CC=C[C@@](CC)([C@@H](OC(C)=O)[C@]3(O)C(=O)OC)[C@H]45)C2)C1 (some centres undefined) | 5.19 | < 5.00 | 5.24
7 | CCOC(=O)[C@]1(c2cc3c(cc2OC)N(C)C2[C@]34CCN3CC=C[C@@](CC)([C@@H](OC(C)=O)[C@]2(O)C(=O)OC)[C@H]34)C[C@@H]2C=C(CC)CN(CCc3c1[nH]c1ccccc31)C2 (some centres undefined) | 6.21 | 5.39 | 6.19
8 | CC[C@]1(O)C[C@@H]2CN(CCc3c([nH]c4ccccc34)[C@@](C(N)=O)(c3cc4c(cc3OC)N(C)C3[C@]45CCN4CC=C[C@@](CC)([C@@H](OC(C)=O)[C@]3(O)C(=O)OC)[C@H]45)C2)C1 (some centres undefined) | < 5.00 | < 5.00 | < 5.00
9 | CC[C@]1(O)C[C@@H]2CN(CCc3c([nH]c4ccccc34)[C@@](C#N)(c3cc4c(cc3OC)N(C)C3[C@]45CCN4CC=C[C@@](CC)([C@@H](OC(C)=O)[C@]3(O)C(=O)OC)[C@H]45)C2)C1 (some centres undefined) | 6.20 | 5.13 | 6.17
10 | CCOC(=O)[C@]1(c2cc3c(cc2OC)N(C)C2[C@]34CCN3CC=C[C@@](CC)([C@@H](OC(C)=O)[C@]2(O)C(=O)OC)[C@H]34)C[C@H]2CN(CCc3c1[nH]c1ccccc31)C[C@](O)(CC)C2 (some centres undefined) | 7.22 | 6.08 | 7.15
